Laboratory results from paper PMC4198181, “Gold(I) Complexes of 9-Deazahypoxanthine as Selective Antitumor and Anti-Inflammatory Agents” (PLoS ONE, 2014).

Experiments:
[1] = system: MCF7 breast carcinoma cells; experiment: MTT in vitro cytotoxicity, MCF7; type: cell-based, human; details: 24 h treatment, read-out: IC50±S.E., MCF7
Experimental: (§1) In vitro cytotoxic activity was determined by the MTT assay in human breast adenocarcinoma (MCF7; ECACC no. 86012803), human osteosarcoma (HOS; ECACC no. 87070202), lung carcinoma (A549; ECACC no. 86012804), malignant melanoma (G361; ECACC no. 88030401), cervix epitheloid carcinoma (HeLa; ECACC no. 93021013), ovarian carcinoma (A2780; ECACC no. 93112519), cisplatin-resistant ovarian carcinoma (A2780R; […] ECACC no 105092802) cancer cell lines, purchased from European Collection of Cell Cultures (ECACC). […] The primary culture of human hepatocytes (HEP220, batch number HEP220819) was obtained from Biopredic International (France). The culture medium was Williams and HAM's F-12 (1∶1) supplemented with penicillin, streptomycin, ascorbic acid, linoleic acid, holo-transferin, ethanolamine, glucagon, insulin, dexamethasone, pyruvate, glucose, glutamine, amphotericin. The medium was enriched for plating with 2% foetal calf serum (v/v). The medium was exchanged for a serum-free medium the day after and the culture was stabilized for additional 24 h. Thereafter, the cells were ready for treatments. […] The MTT assay was performed spectrophotometrically at 540 nm (TECAN, Schoeller Instruments LLC). The cytotoxicity data were expressed as the percentage of viability, where 100% represented the treatments with vehicle (0.1% DMF or 0.1% DMSO). The cytotoxicity data from the cancer cell lines were acquired from three independent experiments (conducted in triplicate) using cells from different passages. The IC50 values were calculated from viability curves. The results are presented as arithmetic means±standard error of the mean (S.E.).

[2] = system: HeLa cervix epitheloid carcinoma cells; experiment: MTT in vitro cytotoxicity, HeLa; type: cell-based, human; details: 24 h treatment, read-out: IC50±S.E., HeLa
Experimental: as §1

[3] = system: A2780R ovarian carcinoma cells resistant to cisplatin; experiment: MTT in vitro cytotoxicity, A2780R; type: cell-based, human; details: 24 h treatment, MTT; read-out: IC50±S.E., A2780R
Experimental: as §1

[4] = system: primary culture of human hepatocytes (HEP220); experiment: MTT in vitro cytotoxicity, primary human hepatocytes; type: cell-based; details: for IC50: 24 h treatment, MTT, read-out: IC50±S.E., HEP220 (healthy human hepatocytes)
Experimental: as §1

[5] = system: TNF-α mRNA; experiment: TNF-α gene expression by RT-qPCR in LPS-stimulated THP-1 macrophages; type: cell-based, human; details: 300 nM, 2 h after LPS, normalised to β-actin
Experimental: (§2) For the determination of biological activity, we used the human monocytic leukaemia cell line THP-1 (ECACC, Salisbury, UK). The cells were cultivated at 37°C in the RPMI 1640 medium supplemented with 2 mM L-glutamine, 10% FBS, 100 U/mL of penicillin and 100 µg/mL of streptomycin in a humidified atmosphere containing 5% CO2. Stabilized cells (3rd–15th passage) were split into microtitration plates to get a concentration of 500 000 cells/mL and the differentiation to macrophages was induced by phorbol myristate acetate (PMA) dissolved in dimethyl sulfoxide (DMSO) at the final concentration of 50 ng/ml, and the cells were incubated for 24 h. In comparison with monocytes, differentiated macrophages tend to adhere to the bottoms of the cultivation plates. For next 24 h the cells were incubated with a fresh complete RPMI medium, i.e. containing antibiotics and FBS, without PMA. The medium was then aspirated, and the cells were washed with PBS and cultivated for next 24 hours in serum-free RPMI 1640 medium. These prepared macrophages were used for the detection of inflammatory response.
(§3) In the order to evaluate the expression of TNF-α, IL-1β, and β-actin mRNA, total RNA was isolated directly from the LPS-stimulated THP-1 cells. THP-1 macrophages were pretreated with compounds 2, 5, and Auranofin at the concentration of 300 nM or the vehicle (0.1% DMSO) only. After 1 h of the incubation, the inflammatory response was induced by LPS [except for the control cells (CTRL)]. After 2 h of the incubation with LPS, the medium was aspirated and the total RNA was isolated directly from the cells in cultivation plates using a RealTime Ready Cell Lysis Kit (Roche), according to the manufacturer's instructions.
(§4) The gene expression was quantified by two-step reverse-transcription quantitative (real-time) PCR (RT-qPCR). The reverse transcription step was performed by Transcriptor Universal cDNA Master using cell lysate as a template. […] The results were normalized to the amount of ROX reference dye, and the change in gene expression was determined by the 2^−ΔΔCT method. […]

[6] = system: IL-1β mRNA; experiment: IL-1β gene expression by RT-qPCR in LPS-stimulated THP-1 macrophages; type: cell-based, human; details: 300 nM, 2 h after LPS, normalised to β-actin
Experimental: as §2, §3, §4

[7] = system: polymorphonuclear cells infiltration in hind paw tissue; experiment: Ex vivo histological evaluation of hind paw tissue (HE staining, PMN infiltration); type: in vivo, Wistar-SPF rats; details: 6 h after carrageenan, Indomethacin 5 mg/kg
Experimental: The carrageenan-induced hind paw edema model was used for the determination of anti-inflammatory activity. Animals were i.p. pretreated with complexes 2, 4, and 5 (the dosages of the individual complexes were adjusted to contain the same amount of gold as in 10 mg/kg dose of Auranofin), Indomethacin (5 mg/kg), or 25% DMSO (v/v in water) 30 min prior to the injection of 1% λ-carrageenan solution (50 µL) into the plantar side of right hind paws of the rats. The paw volume was measured immediately after the carrageenan injection (this value was set-up as baseline value for the hind paw volume) and during the next 6 h after the administration of the edematogenic agent using a plethysmometer (model 7159, Ugo Basile, Varese, Italy). The degree of swelling was evaluated as a percentage of the change of the volume of the right hind paw after the carrageenan treatment from the baseline volume. A non-steroidal anti-inflammatory drug Indomethacin was used as a positive control and the obtained data were also compared with the previously reported profile of antiedematous activity for Auranofin [38]. After 6 h, the animals were sacrificed and the edematous feet were dissected, the tissue from the plantar parts was extracted, fixed and stained by a standard hematoxylin/eosin (HE) staining for cytological evaluation of polymorphonuclear cells infiltration.
To assess the tissue consequences connected with the reduction of inflammation caused by the tested compounds after the intraplantar injection of carrageenan, the histopathological observations were made on the tissue sections obtained from the laboratory animals after the plethysmometric experiments were finished. All animals were sacrificed by cervical dislocation, and immediately after that, the tissue samples were taken from the plantar area of hind paws. The histopathological changes in tissues, stained by the standard HE staining (see Figure 10), were evaluated by the presence of the inflammation infiltrate, which contained mainly neutrophils (polymorphonuclear cells - PMN).

Row | Structure (SMILES) | IC50 [1] [µM] | IC50 [2] [µM] | IC50 [3] [µM] | IC50 [4] [µM] | times lower cytotoxicity against healthy human cells (HEP220) than cancer cell lines ([4]; complex 2: MCF7 vs. HEP220) [times] | effect on TNF-α mRNA transcription [5] | effect on IL-1β mRNA transcription [6] | PMN (neutrophil) infiltrate in hind paw tissue sections [7]
1 | CC(C)Oc1ncnc2cc[n]([Au])c12.c1ccc(P(c2ccccc2)c2ccccc2)cc1 [complex 2, [Au(L2)(PPh3)]] | 0.6 ± 0.1 | 16 ± 0.2 | 5.3 ± 0.4 | 18.5 ± 1.5 | ~30 | significantly reduce the transcription | significantly reduce the transcription | mainly scarce and diffuse
2 | [Au][n]1ccc2ncnc(OCCc3ccccc3)c21.c1ccc(P(c2ccccc2)c2ccccc2)cc1 [complex 5] | > 50 | 22.8 ± 0.5 | 5 ± 0.3 | 19 ± 1.8 | – | significantly reduce the transcription | significantly reduce the transcription | massive presence of PMN cells
